System: K562 human chronic myeloid leukaemia cells
Assay: K562 assay (MTT cytotoxicity of released compounds)
Format: cell-based
Settings: drug incubation 1 hour or 96 hours (not specified which), MTT readout, dose reducing optical density to 50% of control
Description: K562 human chronic myeloid leukaemia cells were maintained in RPM1 1640 medium supplemented with 10% fetal calf serum and 2 mM glutamine at 37° C. in a humidified atmosphere containing 5% CO2 and were incubated with a specified dose of drug for 1 hour or 96 hours at 37° C. in the dark. The incubation was terminated by centrifugation (5 min, 300 g) and the cells were washed once with drug-free medium. Following the appropriate drug treatment, the cells were transferred to 96-well microtiter plates (10^4 cells per well, 8 wells per sample). Plates were then kept in the dark at 37° C. in a humidified atmosphere containing 5% CO2. The assay is based on the ability of viable cells to reduce a yellow soluble tetrazolium salt, 3-(4,5-dimethylthiazol-2-yl)-2,5-diphenyl-2H-tetrazolium bromide (MTT, Aldrich-Sigma), to an insoluble purple formazan precipitate. Following incubation of the plates for 4 days (to allow control cells to increase in number by approximately 10 fold), 20 μL of MTT solution (5 mg/mL in phosphate-buffered saline) was added to each well and the plates further incubated for 5 h. The plates were then centrifuged for 5 min at 300 g and the bulk of the medium pipetted from the cell pellet leaving 10-20 μL per well. […] The optical density was then read at a wavelength of 550 nm on a Titertek Multiscan ELISA plate reader, and a dose-response curve was constructed. […]

COc1cc2c(cc1OCCCCCOc1cc3c(cc1OC)C(=O)N1C=C(C)C[C@H]1C=N3)N=C[C@@H]1CC(C)=CN1C2=O [Compound RelC]
IC50: 0.425 nM

Source: US10010624B2, “Pyrrolobenzodiazepine-antibody conjugates” (MEDIMMUNE LIMITED, priority 2013, dated 2018)
